Structures can show the parent of a compound that is named as a salt.
biological target: T1, peptide A (contig29; N-terminal residues 1-25 of GJC3, hCx30.2/31.3) (Homo sapiens, UniProt Q8NFK1); assay: surface plasmon resonance (ProteOn XPR36), immobilised biotinylated peptide; type: binding; details: PBS; 0-400 uM titration; N-terminal 25-residue peptide only
T1 construct: not the full-length connexin
T1 sequence (Q8NFK1 1-25): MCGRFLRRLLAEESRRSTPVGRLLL

| SMILES | surface plasmon resonance (ProteOn XPR36), immobilised biotinylated peptide |
| --- | --- |
| CCC(C)(C)C(=O)O[C@H]1C[C@@H](C)C=C2C=C[C@H](C)[C@H](CC[C@@H](O)C[C@@H](O)CC(=O)O)[C@H]21 [simvastatin sodium salt] | simvastatin acid sodium salt exhibited a weak, concentration dependent binding profile |
| O=C(O)c1cccnc1Nc1cccc(C(F)(F)F)c1 [niflumic acid] | concentration dependent binding profile of niflumic acid was observed with peptide A |
| CC(C)n1c(/C=C/C(O)CC(O)CC(=O)O)c(-c2ccc(F)cc2)c2ccccc21 (stereo not shown) [fluvastatin sodium salt] | fluvastatin sodium salt, more pronounced binding is seen to peptide A |
| CC1(C)[C@@H](OC(=O)CCC(=O)O)CC[C@]2(C)[C@H]3C(=O)C=C4[C@@H]5C[C@@](C)(C(=O)O)CC[C@]5(C)CC[C@@]4(C)[C@]3(C)CC[C@@H]12 [carbenoxolone disodium salt] | carbenoxolone, exhibited a pronounced binding interaction |

Source: PMC4749215, “Simvastatin Sodium Salt and Fluvastatin Interact with Human Gap Junction Gamma-3 Protein” (PLoS ONE, 2016)
